From ChEMBL document CHEMBL6153106, “Synergistic Anti-Ferroptosis with a Minimalistic, Peroxide-Triggered Carbon Monoxide Donor for Parkinson's Disease” (J Med Chem, 2025)
Activity calls are given as the source filed them.

Tests used:
[1] = Induction of H2O2-induced CO release in PBS buffer at pH 7.4 assessed as retention time at 100 uM by gas chromatography analysis; assay type: functional
[2] = Induction of ONOO-induced CO release in PBS buffer at pH 7.4 assessed as retention time at 100 uM by gas chromatography analysis; assay type: functional
[3] = Induction of ONOO-induced CO release in PBS buffer at pH 7.4 at 100 uM by gold-standard CO-myoglobin assay; assay type: functional
[4] = Induction of ONOO-induced CO release in PBS buffer at pH 7.4 at 100 uM in presence of PdCl2 by fluorescence based analysis; assay type: functional
[5] = Induction of ONOO-induced CO release in PBS buffer at pH 7.4 assessed as increase in fluorescence intensity at 100 uM incubated for 30 min by gas detector analysis; assay type: functional
[6] = Induction of H2O2-induced CO release in PBS buffer at pH 7.4 assessed as increase in fluorescence intensity at 100 uM incubated for 30 min by gas detector analysis; assay type: functional
SH-SY5Y [7] = test: Inhibition of ferroptosis in MPP+-induced human SH-SY5Y cells assessed as decrease in intracellular ONOO release by measuring fluorescence intensity at 10 uM pretreated with MPP+ for 20 hrs followed by compound treatment for 2 hrs by HK-green-4I probe based confocal microscopic analysis; assay type: functional, cell-based
SH-SY5Y [8] = test: Inhibition of ferroptosis in MPP+-induced human SH-SY5Y cells assessed as decrease in intracellular Fe2+ release by measuring fluorescence intensity at 10 uM pretreated with MPP+ for 20 hrs followed by compound treatment for 2 hrs by FerroOrange probe based confocal microscopic analysis; assay type: functional, cell-based
SH-SY5Y [9] = test: Inhibition of ferroptosis in MPP+-induced human SH-SY5Y cells assessed as induction of CO release by measuring increase in fluorescent intensity at 10 uM pretreated with MPP+ for 20 hrs followed by compound treatment for 30 mins by COP490 probe based confocal microscopic analysis; assay type: functional, cell-based
SH-SY5Y [10] = test: Inhibition of ferroptosis in MPP+-induced human SH-SY5Y cells assessed as increase in GPX4 level by Western blot analysis; assay type: functional, cell-based
SH-SY5Y [11] = test: Inhibition of ferroptosis in MPP+-induced human SH-SY5Y cells assessed as reduction in DMT1 level by Western blot analysis; assay type: functional, cell-based
SH-SY5Y [12] = test: Inhibition of ferroptosis in MPP+-induced human SH-SY5Y cells assessed as reduction in 4-HNE level by Western blot analysis; assay type: functional, cell-based
Mus musculus [13] = test: Anti-parkinson activity in MPTP-induced male C57BL/6J mouse model assessed as increase in total distance traveled at 6 mg/kg, iv pretreated with compound for 1 day followed by MPTP-induction for 2 to 9 days and measured after 10 days by open field test; assay type: functional, organism-based; conditions: time 10.0 day
Mus musculus [14] = test: Anti-parkinson activity in MPTP-induced male C57BL/6J mouse model assessed as increase in mean speed at 6 mg/kg, iv pretreated with compound for 1 day followed by MPTP-induction for 2 to 9 days and measured after 10 days by open field test; assay type: functional, organism-based; conditions: time 10.0 day
Mus musculus [15] = test: Anti-parkinson activity in MPTP-induced male C57BL/6J mouse model assessed as increase in distance traveled in open arms at 6 mg/kg, iv pretreated with compound for 1 day followed by MPTP-induction for 2 to 9 days and measured after 10 days by elevated plus maze test; assay type: functional, organism-based; conditions: time 10.0 day
Mus musculus [16] = test: Anti-parkinson activity in MPTP-induced male C57BL/6J mouse model assessed as increase in frequency of open arms entries at 6 mg/kg, iv pretreated with compound for 1 day followed by MPTP-induction for 2 to 9 days and measured after 10 days by elevated plus maze test; assay type: functional, organism-based; conditions: time 10.0 day
Mus musculus [17] = test: Anti-parkinson activity in MPTP-induced male C57BL/6J mouse model assessed as increase in total number of fecal pellets production at 6 mg/kg, iv pretreated with compound for 1 day followed by MPTP-induction for 2 to 9 days and measured after 10 days by elevated plus maze test; assay type: functional, organism-based; conditions: time 10.0 day
Mus musculus [18] = test: Anti-parkinson activity in MPTP-induced male C57BL/6J mouse model assessed as increase in latency period at 6 mg/kg, iv pretreated with compound for 1 to 11 days followed by MPTP-induction for 1 to 5 days and measured on day 24 by rotarod test; assay type: functional, organism-based; conditions: time 24.0 day
Mus musculus [19] = test: Anti-parkinson activity in MPTP-induced male C57BL/6J mouse model assessed as decrease in descending time at 6 mg/kg, iv pretreated with compound for 1 to 11 days followed by MPTP-induction for 1 to 5 days and measured on day 24 by pole test; assay type: functional, organism-based; conditions: time 24.0 day
Mus musculus [20] = test: Anti-parkinson activity in MPTP-induced male C57BL/6J mouse model assessed as improvement in hindlimb clasping reflex at 6 mg/kg, iv pretreated with compound for 1 to 11 days followed by MPTP-induction for 1 to 5 days and measured on day 24 by hindlimb clasping test; assay type: functional, organism-based; conditions: time 24.0 day
Mus musculus [21] = test: Anti-parkinson activity in MPTP-induced male C57BL/6J mouse model assessed as increase in TH level in substantia nigra pars compacta at 6 mg/kg, iv pretreated with compound for 1 to 11 days followed by MPTP-induction for 1 to 5 days and measured on day 26 by immunofluorescence analysis; assay type: functional, organism-based; conditions: time 26.0 day
Mus musculus [22] = test: Anti-parkinson activity in MPTP-induced male C57BL/6J mouse model assessed as increase in TH level in substantia nigra pars compacta at 6 mg/kg, iv pretreated with compound for 1 to 11 days followed by MPTP-induction for 1 to 5 days and measured on day 26 by Western blot analysis; assay type: functional, organism-based; conditions: time 26.0 day
Mus musculus [23] = test: Anti-parkinson activity in MPTP-induced male C57BL/6J mouse model assessed as decrease in total alpha-synuclein level in midbrain at 6 mg/kg, iv pretreated with compound for 1 to 11 days followed by MPTP-induction for 1 to 5 days and measured on day 26 by Western blot analysis; assay type: functional, organism-based; conditions: time 26.0 day
Mus musculus [24] = test: Anti-parkinson activity in MPTP-induced male C57BL/6J mouse model assessed as decrease in phosphorylated alpha-synuclein level in midbrain at 6 mg/kg, iv pretreated with compound for 1 to 11 days followed by MPTP-induction for 1 to 5 days and measured on day 26 by Western blot analysis; assay type: functional, organism-based; conditions: time 26.0 day
Mus musculus [25] = test: Anti-parkinson activity in MPTP-induced male C57BL/6J mouse model assessed as increase in GPX4 expression in midbrain at 6 mg/kg, iv pretreated with compound for 1 to 11 days followed by MPTP-induction for 1 to 5 days and measured on day 26 by Western blot analysis; assay type: functional, organism-based; conditions: time 26.0 day
Mus musculus [26] = test: Anti-parkinson activity in MPTP-induced male C57BL/6J mouse model assessed as increase in SLC7A11 expression in midbrain at 6 mg/kg, iv pretreated with compound for 1 to 11 days followed by MPTP-induction for 1 to 5 days and measured on day 26 by Western blot analysis; assay type: functional, organism-based; conditions: time 26.0 day
Mus musculus [27] = test: Anti-parkinson activity in MPTP-induced male C57BL/6J mouse model assessed as decrease in […] expression in midbrain at 6 mg/kg, iv pretreated with compound for 1 to 11 days followed by MPTP-induction for 1 to 5 days and measured on day 26 by Western blot analysis; assay type: functional, organism-based; conditions: time 26.0 day
Mus musculus [28] = test: Anti-parkinson activity in MPTP-induced male C57BL/6J mouse model assessed as increase in GPX4 expression in substantia nigra pars compacta at 6 mg/kg, iv pretreated with compound for 1 to 11 days followed by MPTP-induction for 1 to 5 days and measured on day 26 by immunostaining based analysis; assay type: functional, organism-based; conditions: time 26.0 day
Mus musculus [29] = test: Anti-parkinson activity in MPTP-induced male C57BL/6J mouse model assessed as increase in TH expression in substantia nigra pars compacta at 6 mg/kg, iv pretreated with compound for 1 to 11 days followed by MPTP-induction for 1 to 5 days and measured on day 26 by immunostaining based analysis; assay type: functional, organism-based; conditions: time 26.0 day
Mus musculus [30] = test: Anti-parkinson activity in MPTP-induced male C57BL/6J mouse model assessed as reduction in 4-HNE level in midbrain at 6 mg/kg, iv pretreated with compound for 1 to 11 days followed by MPTP-induction for 1 to 5 days and measured on day 26 by Western blot analysis; assay type: functional, organism-based; conditions: time 26.0 day
Mus musculus [31] = test: Anti-parkinson activity in MPTP-induced male C57BL/6J mouse model assessed as reduction in MDA level in midbrain at 6 mg/kg, iv pretreated with compound for 1 to 11 days followed by MPTP-induction for 1 to 5 days and measured on day 26 by Western blot analysis; assay type: functional, organism-based; conditions: time 26.0 day
Mus musculus [32] = test: Anti-parkinson activity in MPTP-induced male C57BL/6J mouse model assessed as reduction in free ferrous iron level in midbrain at 6 mg/kg, iv pretreated with compound for 1 to 11 days followed by MPTP-induction for 1 to 5 days and measured on day 21; assay type: functional, organism-based; conditions: time 21.0 day
Mus musculus [33] = test: Anti-parkinson activity in MPTP-induced male C57BL/6J mouse model assessed as reduction in TFRC level in midbrain at 6 mg/kg, iv pretreated with compound for 1 to 11 days followed by MPTP-induction for 1 to 5 days and measured on day 21; assay type: functional, organism-based; conditions: time 21.0 day
Mus musculus [34] = test: Anti-parkinson activity in MPTP-induced male C57BL/6J mouse model assessed as reduction in DMT1 level in midbrain at 6 mg/kg, iv pretreated with compound for 1 to 11 days followed by MPTP-induction for 1 to 5 days and measured on day 21; assay type: functional, organism-based; conditions: time 21.0 day
Mus musculus [35] = test: Anti-parkinson activity in MPTP-induced male C57BL/6J mouse model assessed as reduction in NCOA4 level in midbrain at 6 mg/kg, iv pretreated with compound for 1 to 11 days followed by MPTP-induction for 1 to 5 days and measured on day 21; assay type: functional, organism-based; conditions: time 21.0 day
[36] = Induction of ONOO-induced CO release in PBS buffer at pH 7.4 at 100 uM by HPLC analysis; assay type: functional
[37] = Induction of H2O2-induced CO release in PBS buffer at pH 7.4 at 100 uM by HPLC analysis; assay type: functional

COC(=O)C(=O)OC1(C)C(=O)Oc2ccc(F)cc21 (configuration not stated)
active: Activity [3] | Activity [4] Weak_effect | Activity [5] | Activity [6] | inhibition (SH-SY5Y [7]) | inhibition (SH-SY5Y [8]) | inhibition (SH-SY5Y [9]) | inhibition (SH-SY5Y [10]) | inhibition (SH-SY5Y [11]) | inhibition (SH-SY5Y [12]) | Activity (Mus musculus [13]) | Activity (Mus musculus [14]) | Activity (Mus musculus [15]) | Activity (Mus musculus [16]) | Activity (Mus musculus [17]) | Activity (Mus musculus [18]) | Activity (Mus musculus [19]) | Activity (Mus musculus [20]) | Activity (Mus musculus [21]) | Activity (Mus musculus [22]) | Activity (Mus musculus [23]) | Activity (Mus musculus [24]) | Activity (Mus musculus [25]) | Activity (Mus musculus [26]) | Activity (Mus musculus [27]) | Activity (Mus musculus [28]) | Activity (Mus musculus [29]) | Activity (Mus musculus [30]) | Activity (Mus musculus [31]) | Activity (Mus musculus [32]) | Activity (Mus musculus [33]) | Activity (Mus musculus [34]) | Activity (Mus musculus [35])
1.96 min: Retention time [2]
3.86 min: Retention time [1]

CC(=O)c1cc(F)ccc1O
active: Activity [36] | Activity [37]
